In patent US20190275324A1, “METHOD FOR TREATING OR PREVENTING A SICKLE-CELL DISEASE AND SYMPTOMS THEREOF” (DIAVEIN, priority 2016, published 2019):

Tests used:
[1] = test system: patients with a severe vaso-occlusive crisis associated with sickle cell disease; assay: Clinical study of VEST in combination with NSAID for relief of pain in vaso-occlusive crisis (Example 6), 10-cm VAS for pain; type: in vivo, human; settings: all groups also given Perfalgan and Tramadol
Description: The objective of the clinical study was to assess the efficacy of VEST in combination with non-steroid anti-inflammatory drugs to manage pain in adult and paediatric patients experimenting a severe vaso-occlusive crisis associated with sickle cell disease.
27 patients suffering from a sickle-cell disease and experimenting a severe vaso-occlusive crisis, with a pain score of at least 6 in the visual analog scale for pain (VAS pain), were enrolled in the study. The enrolled patients comprised 16 adults (of 19 to 35 years) and 11 children (of 8 to 17 years). 8 patients were of HbSS genotype, 19 patients were of HbSC genotype. The enrolled patients comprised 18 male subjects and 9 female subjects.
After their admission at the hospital, 15 patients received pain killer (Perfalgan) and (Tramadol) drugs and the NSAID Diclofenac and were subjected to VEST treatment for 4 hours, with two electrodes under each calf and two electrodes under each arm of the patient.
2 patients received Pain killer (Perfalgan) and (Tramadol) drug and were subjected to VEST treatment for 4 hours, with two electrodes under each calf and two electrodes under each arm of the patient. These patients were not administered with any NSAID. […]
Pain change in each patient was assessed with a 10-cm visual analog scale (VAS) for pain (e.g. as shown in FIG. 4) every two hours, during 6 hours after the beginning of VEST.

[2] = test system: patients with acute vaso-occlusive crisis; settings: after 4 hours; patients treated with morphine, Weiner et al.; cited from earlier work

In the case of `O=C(O)Cc1ccccc1Nc1c(Cl)cccc1Cl` [NSAID alone, Diclofenac], the “mean pain score in VAS” value ([1]; after 4 hours) is reported as 6 cm and the “mean pain score in VAS” value ([1]; after 6 hours) is reported as 6 cm.
In the case of `CN1CC[C@]23c4c5ccc(O)c4O[C@H]2[C@@H](O)C=C[C@H]3[C@H]1C5` [morphine], the “mean pain score in VAS” value [2] is listed as “higher than 6 cm”.
